From patent US20110150767A1, “ALPHA-SUBSTITUTED AND ALPHA-UNSUBSTITUTED AROMATIC AMINO ACID DERIVATIVES AND COMPOSITIONS THEREOF FOR USE TO TREAT, DIAGNOSE, OR MONITOR A MEDICAL CONDITION” (priority 2009, published 2011) come the findings set out here.

By IC50 is commonly meant the concentration at which inhibition is half-maximal.

Each structure is given as a SMILES string.

Assay [1] deals with T1, human L-type amino acid transporter 1 (LAT1; S2-hLAT1 cells) (Homo sapiens, UniProt Q01650).
T1 construct: expressed in transfected cells; host or cells: S2 cells (S2-hLAT1 / S2-LAT1); mammalian cell line described in Morimoto et al., J Pharmacol Sci 2008, 108, 505-516
T1 sequence (Q01650 whole entry, one chain of several): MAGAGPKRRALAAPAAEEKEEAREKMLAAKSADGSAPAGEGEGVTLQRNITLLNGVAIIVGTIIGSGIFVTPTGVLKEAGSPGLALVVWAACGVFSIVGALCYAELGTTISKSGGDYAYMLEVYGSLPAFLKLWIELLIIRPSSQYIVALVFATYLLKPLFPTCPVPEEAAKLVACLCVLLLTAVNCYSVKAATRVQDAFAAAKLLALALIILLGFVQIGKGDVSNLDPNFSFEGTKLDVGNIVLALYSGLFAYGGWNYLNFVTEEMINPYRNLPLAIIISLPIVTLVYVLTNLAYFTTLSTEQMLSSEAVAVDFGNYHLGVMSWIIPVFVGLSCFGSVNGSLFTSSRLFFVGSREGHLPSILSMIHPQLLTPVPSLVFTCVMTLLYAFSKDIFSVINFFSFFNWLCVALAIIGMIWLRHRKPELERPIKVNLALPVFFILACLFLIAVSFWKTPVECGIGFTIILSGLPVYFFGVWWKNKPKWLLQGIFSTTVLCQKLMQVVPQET
Description: Inhibition of L-[14C]leucine uptake in S2-LAT1 cells. It is filed as cell-based. Conditions: inhibition of 1.0 μM L-[14C]leucine uptake, 1.0 min, 37° C., NI = no inhibition at 100 μM. The protocol:
(§1) The establishment and characterization of mammalian cell lines expressing human L-type amino acid transporterss (i.e. S2-hLAT1 and S2-hLAT2) has been previously described (Morimoto et al., Journal of Pharmacological Sciences, 2008, 108, 505-516).
(§2) General test procedures are as follows: All test compounds were dissolved in dimethyl sulfoxide (DMSO) to prepare stock solutions at the concentrations of 0.05, 0.5, 5.0 and 50 mM; next, these stock solutions were used and diluted with uptake solution to make final test concentrations of 0.10, 1.00, 10.0 and 100 μM, respectively. Therefore, all compounds used for uptake experiment were in uptake solution containing 0.2% DMSO; experiments are performed in triplicate for each concentration. For control uptake, only DMSO was added into the uptake solution to a final concentration of 0.2%.
(§3) S2-LAT1 and S2-LAT2 cells were seeded (1.3×10^5 cells/well) into 24-well plates and cultured at 33° C. (5% CO2) for 2-3 days until confluent (90%-100% confluence). Uptake experiments were performed at 37° C. The culture medium was removed and washed 3 times with uptake solution (37° C.; Hank's Na^+ free buffer consisting of 125 mM choline chloride, 4.8 mM KCl, 1.3 mM CaCl2, 1.2 mM MgCl2, 25.0 mM HEPES, and 5.0 mM Tris, pH 7.4, supplemented with D-glucose (5.6 mM). The cells were equilibrated in uptake solution (300 μL; 37° C.) for 12 min. The equilibrated solution was removed and uptake solution containing radio-labeled compound (1.0 μM L-[^14C] Leucine) with or without test compound (300 μL) was added to the cells (1.0 min). The test solution was removed and the cells washed 3 times with ice-cold uptake solution. The cells are then solubilized with 0.1N NaOH (0.5 mL) and transferred to scintillation vials. Liquid scintillation fluid (3.0 mL; aquasol-2) was added, mixed and substrate accumulation was measured by counting radioactivity via liquid scintillation counting (LSC; LSC6100, Aloka, Tokyo). The uptake value and % of inhibition were calculated to afford IC50 values.

The target in assay [2] is T2, human L-type amino acid transporter 2 (LAT2; S2-hLAT2 cells) (Homo sapiens, UniProt Q9UHI5).
T2 construct: expressed in transfected cells; host or cells: S2 cells (S2-hLAT2 / S2-LAT2); mammalian cell line described in Morimoto et al., J Pharmacol Sci 2008, 108, 505-516
T2 sequence (Q9UHI5 1-535): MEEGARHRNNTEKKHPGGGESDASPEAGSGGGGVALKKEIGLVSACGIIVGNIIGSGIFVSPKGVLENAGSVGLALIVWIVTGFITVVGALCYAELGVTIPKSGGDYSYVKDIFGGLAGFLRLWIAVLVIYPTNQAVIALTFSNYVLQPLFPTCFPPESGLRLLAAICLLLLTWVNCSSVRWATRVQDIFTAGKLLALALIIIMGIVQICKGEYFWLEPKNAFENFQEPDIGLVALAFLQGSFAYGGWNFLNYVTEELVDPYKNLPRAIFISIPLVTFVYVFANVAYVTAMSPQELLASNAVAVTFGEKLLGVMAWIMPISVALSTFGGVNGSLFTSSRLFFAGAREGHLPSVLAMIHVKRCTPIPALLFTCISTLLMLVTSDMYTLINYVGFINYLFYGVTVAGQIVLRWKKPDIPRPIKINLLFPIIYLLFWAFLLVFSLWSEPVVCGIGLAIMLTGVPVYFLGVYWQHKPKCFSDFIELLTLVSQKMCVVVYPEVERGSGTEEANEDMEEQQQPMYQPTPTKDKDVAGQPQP
T2 sequence (P08195 1-529 partner): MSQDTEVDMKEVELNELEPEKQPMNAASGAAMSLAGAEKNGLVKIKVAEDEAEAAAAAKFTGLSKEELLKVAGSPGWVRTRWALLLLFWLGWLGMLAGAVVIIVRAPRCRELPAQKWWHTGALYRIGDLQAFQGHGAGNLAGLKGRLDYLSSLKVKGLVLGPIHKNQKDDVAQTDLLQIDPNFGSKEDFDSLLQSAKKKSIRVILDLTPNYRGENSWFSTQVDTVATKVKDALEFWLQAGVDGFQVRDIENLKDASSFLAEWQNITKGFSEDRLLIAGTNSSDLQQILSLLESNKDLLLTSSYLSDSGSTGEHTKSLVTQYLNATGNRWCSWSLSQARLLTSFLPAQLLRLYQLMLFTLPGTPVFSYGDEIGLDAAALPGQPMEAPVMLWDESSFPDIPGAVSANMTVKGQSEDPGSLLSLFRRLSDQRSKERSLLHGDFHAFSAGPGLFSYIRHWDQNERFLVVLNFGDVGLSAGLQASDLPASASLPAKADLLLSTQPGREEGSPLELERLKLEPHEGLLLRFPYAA
The assay is described as follows: Inhibition of L-[14C]leucine uptake in S2-LAT2 cells. In kind it is cell-based. The conditions noted are these: inhibition of 1.0 μM L-[14C]leucine uptake, 1.0 min, 37° C., NI = no inhibition at 100 μM. The protocol:
as §1, §2, §3

With `COc1cc(Cl)ccc1COc1c(Cl)cc(C[C@H](N)C(=O)O)cc1Cl` [compound 134], the IC50 in assay [1] is 4.4 µM; in assay [2], greater than 100 µM.
On the same counts, the results for `COc1ccc(COc2c(Cl)cc(C[C@H](N)C(=O)O)cc2Cl)c(OC)n1` [compound 135] are 2.4 µM and 32.5 µM.
The matching figures for `COc1ccc(COc2c(Cl)cc(C[C@H](N)C(=O)O)cc2Cl)c(OC)c1OC` [compound 136]: 8.1 µM and greater than 100 µM.
Turning to `COc1ccc(COc2c(Cl)cc(C[C@H](N)C(=O)O)cc2Cl)c(C)c1C` [compound 137], the results for the half-inhibitory concentration (IC50) in assay [1] and in assay [2] were 3.5 µM and greater than 100 µM, respectively.
On the same counts, the results for `COc1cc(OC)c(OC)cc1COc1c(Cl)cc(C[C@H](N)C(=O)O)cc1Cl` [compound 138] are 29.2 µM and greater than 100 µM.
The matching figures for `CCOc1cc(COc2c(Cl)cc(C[C@H](N)C(=O)O)cc2Cl)cc(OCC)c1OCC` [compound 139]: 1.2 µM and greater than 100 µM.
On the same counts, the results for `CCOc1ccc(COc2c(Cl)cc(C[C@H](N)C(=O)O)cc2Cl)c(OCC)c1` [compound 140] are 2.2 µM and greater than 100 µM.
Turning to `CCOc1ccc(COc2c(Cl)cc(C[C@H](N)C(=O)O)cc2Cl)cc1OCC` [compound 141], the IC50 in assay [1] is 2.9 µM; in assay [2], 44.9 µM.
